# Molecular target: human TYK2 (JH2domain-pseudokinase) (Homo sapiens (Human), UniProt P29597)
# Assay: TYK2 JH2 Domain Binding Assay (KINOMEscan, DiscoveRx)
# Conditions: 11-point dilution, duplicate
# In short: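 TYK2 JH2 (G556–D888)–NFkB DBD fusion, DNA-tagged, from HEK293 extracts (<0.1 nM) competed against immobilised biotinylated ligand for 1 h at room temperature, 0.9% DMSO. Bead-retained kinase quantified by qPCR; Kd from 11-point 3-fold series (top 30,000 nM, duplicate), Hill fit with slope −1.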
# Sequence of human TYK2 (JH2domain-pseudokinase) (P29597 556-888): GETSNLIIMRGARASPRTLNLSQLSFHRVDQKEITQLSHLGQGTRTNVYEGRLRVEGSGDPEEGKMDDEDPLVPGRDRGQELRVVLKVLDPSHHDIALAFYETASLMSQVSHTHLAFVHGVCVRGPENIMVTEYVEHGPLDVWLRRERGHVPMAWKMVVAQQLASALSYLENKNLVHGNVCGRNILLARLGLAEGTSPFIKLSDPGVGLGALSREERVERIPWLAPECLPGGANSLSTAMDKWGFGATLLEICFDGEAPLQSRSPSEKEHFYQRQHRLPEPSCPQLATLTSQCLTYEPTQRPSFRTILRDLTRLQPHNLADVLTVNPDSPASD
row,Kd [nM],SMILES
1,0.1 to 0.5,"COCCCc1cnc(-c2ccc(Nc3cc(NC(=O)C4CC4)nc4[nH]c(C(F)F)nc34)c(S(C)(=O)=O)c2)s1 [I-584, N-(2-(difluoromethyl)-7-((4-(5-(3-methoxypropyl)thiazol-2-yl)-2-(methylsulfonyl)phenyl)amino)-3H-imidazo[4,5-b]pyridin-5-yl)cyclopropanecarboxamide]"
2,0.1 to 0.5,"Cc1nc2c(Nc3ccc([C@H]4CCCO4)cc3S(C)(=O)=O)cc(Nc3ccc(C(C)C)c(C#N)n3)nc2[nH]1 [I-595, (R)-3-isopropyl-6-((2-methyl-7-((2-(methylsulfonyl)-4-(tetrahydrofuran-2-yl)phenyl)amino)-3H-imidazo[4,5-b]pyridin-5-yl)amino)picolinonitrile]"
3,1 to 10,"Cc1nc2c(Nc3ccc(C4=NC(C)(C)CO4)cc3S(C)(=O)=O)cc(NC(=O)[C@H]3C[C@H]3F)nc2[nH]1 [I-339, (1R,2R)—N-(7-((4-(4,4-dimethyl-4,5-dihydrooxazol-2-yl)-2-(methylsulfonyl)phenyl)amino)-2-methyl-3H-imidazo[4,5-b]pyridin-5-yl)-2-fluorocyclopropane-1-carboxamide]"
4,< 0.1,"Cc1nc2c(Nc3ccc([C@H]4CCCCO4)cc3S(C)(=O)=O)cc(Nc3cnc(C)c(C)n3)nc2[nH]1 [I-474, (R)—N5-(5,6-dimethylpyrazin-2-yl)-2-methyl-N7-(2-(methylsulfonyl)-4-(tetrahydro-2H-pyran-2-yl)phenyl)-3H-imidazo[4,5-b]pyridine-5,7-diamine]"
5,0.1 to 0.5,"COc1c(Nc2cc(Nc3ccc(N4CC[C@H](OC)C4)c(C#N)n3)nc3[nH]c(C)nc23)cccc1-c1nnn(C)n1 [I-112, (S)-6-((7-((2-methoxy-3-(2-methyl-2H-tetrazol-5-yl)phenyl)amino)-2-methyl-3H-imidazo[4,5-b]pyridin-5-yl)amino)-3-(3-methoxypyrrolidin-1-yl)picolinonitrile]"
6,1 to 10,"COc1cc(C(=O)N2CCCC2)ccc1Nc1cc(NC(=O)C2CC2)nc2[nH]c(C(F)F)nc12 [I-35, N-(2-(difluoromethyl)-7-((2-methoxy-4-(pyrrolidine-1-carbonyl)phenyl)amino)-3H-imidazo[4,5-b]pyridin-5-yl)cyclopropanecarboxamide]"
7,0.1 to 0.5,"Cc1nn(C)cc1-c1ccc(Nc2cc(NC(=O)C3CC3)nc3[nH]c(C(F)F)nc23)c(N(C)S(C)(=O)=O)c1 [I-197, N-(2-(difluoromethyl)-7-((4-(1,3-dimethyl-1H-pyrazol-4-yl)-2-(N-methylmethylsulfonamido)phenyl)amino)-3H-imidazo[4,5-b]pyridin-5-yl)cyclopropanecarboxamide]"
8,0.5 to 1,"COc1cc(-c2nc(C)nn2C)ccc1Nc1cc(NC(=O)C2CC2)nc2[nH]c(C)nc12 [I-163, N-(7-((4-(1,3-dimethyl-1H-1,2,4-triazol-5-yl)-2-methoxyphenyl)amino)-2-methyl-3H-imidazo[4,5-b]pyridin-5-yl)cyclopropanecarboxamide]"
9,1 to 10,"Cc1cc(-c2ccc(Nc3cc(NC(=O)C4CC4(F)F)nc4[nH]c(C(F)F)nc34)c(S(C)(=O)=O)c2)nn1C (stereo not shown) [I-338, N-(2-(difluoromethyl)-7-((4-(1,5-dimethyl-1H-pyrazol-3-yl)-2-(methylsulfonyl)phenyl)amino)-3H-imidazo[4,5-b]pyridin-5-yl)-2,2-difluorocyclopropane-1-carboxamide]"
10,0.5 to 1,"CS(=O)(=O)c1cc(C2CCOC2)ccc1Nc1cc(NC(=O)C2CC2)nc2[nH]c(C(F)F)nc12 (stereo not shown) [I-389, N-(2-(difluoromethyl)-7-((2-(methylsulfonyl)-4-(tetrahydrofuran-3-yl)phenyl)amino)-3H-imidazo[4,5-b]pyridin-5-yl)cyclopropanecarboxamide]"
11,0.1 to 0.5,Cc1nc2c(Nc3ccc(-c4ncc(C)n4C)cc3S(C)(=O)=O)cc(Nc3cccc(C#N)n3)nc2[nH]1 [I-352]
12,1 to 10,"Cc1nc2c(Nc3ccc(-c4cn(C)cn4)cc3S(C)(=O)=O)cc(NC(=O)[C@@H]3CC3(F)F)nc2[nH]1 [I-228, (S)-2,2-difluoro-N-(2-methyl-7-((4-(1-methyl-1H-imidazol-4-yl)-2-(methylsulfonyl)phenyl)amino)-3H-imidazo[4,5-b]pyridin-5-yl)cyclopropane-1-carboxamide]"
13,1 to 10,"COc1c(Nc2cc(Nc3cnc(C)c(C#N)n3)nc3[nH]c(C(F)F)nc23)cccc1-c1nnn(C)n1 [I-38, 6-((2-(difluoromethyl)-7-((2-methoxy-3-(2-methyl-2H-tetrazol-5-yl)phenyl)amino)-3H-imidazo[4,5-b]pyridin-5-yl)amino)-3-methylpyrazine-2-carbonitrile]"
14,< 0.1,Cc1cc(Nc2cc(Nc3ccc(C4CCC(C)(C)CO4)cc3S(C)(=O)=O)c3nc(C)[nH]c3n2)nc(C)n1 (stereo not shown) [I-642]
15,< 0.1,"Cc1c(-c2ccc(Nc3cc(Nc4cc5n(n4)CCOC5)nc4[nH]c(C(F)F)nc34)c(S(C)(=O)=O)c2)cnn1C [I-491, 2-(difluoromethyl)-N5-(6,7-dihydro-4H-pyrazolo[5,1-c][1,4]oxazin-2-yl)-N7-(4-(1,5-dimethyl-1H-pyrazol-4-yl)-2-(methylsulfonyl)phenyl)-3H-imidazo[4,5-b]pyridine-5,7-diamine]"
16,0.5 to 1,COCCCc1csc(-c2ccc(Nc3cc(NC(=O)C4CC4)nc4[nH]c(C(F)F)nc34)c(S(C)(=O)=O)c2)n1 [I-393]
17,0.1 to 0.5,"COc1c(Nc2cc(Nc3ccc(N4CCCC4=O)c(C#N)n3)nc3[nH]c(C(F)F)nc23)cccc1-c1nnn(C)n1 [I-37, 6-((2-(difluoromethyl)-7-((2-methoxy-3-(2-methyl-2H-tetrazol-5-yl)phenyl)amino)-3H-imidazo[4,5-b]pyridin-5-yl)amino)-3-(2-oxopyrrolidin-1-yl)picolinonitrile]"
18,0.1 to 0.5,"Cc1cnc(-c2ccc(Nc3cc(NC(=O)C4CC4)nc4[nH]c(C(F)F)nc34)c(N(C)S(C)(=O)=O)c2)n1C [I-169, N-(2-(difluoromethyl)-7-((4-(1,5-dimethyl-1H-imidazol-2-yl)-2-(N-methylmethylsulfonamido)phenyl)amino)-3H-imidazo[4,5-b]pyridin-5-yl)cyclopropanecarboxamide]"
19,1 to 10,"Cc1nc2c(Nc3ccc(C4=NC(C)(C)CO4)cc3S(C)(=O)=O)cc(NC(=O)[C@@H]3C[C@@H]3F)nc2[nH]1 [I-282, (1S,2S)—N-(7-((4-(4,4-dimethyl-4,5-dihydrooxazol-2-yl)-2-(methylsulfonyl)phenyl)amino)-2-methyl-3H-imidazo[4,5-b]pyridin-5-yl)-2-fluorocyclopropane-1-carboxamide]"

row,SMILES,Kd [nM]
1,"Cc1cc(Nc2cc(Nc3ccc(-c4nc(C)sc4C)cc3S(C)(=O)=O)c3nc(C)[nH]c3n2)nc(C)n1 [I-579, N5-(2,6-dimethylpyrimidin-4-yl)-N7-(4-(2,5-dimethylthiazol-4-yl)-2-(methylsulfonyl)phenyl)-2-methyl-3H-imidazo[4,5-b]pyridine-5,7-diamine]",< 0.1
2,"COc1c(Nc2cc(NC(=O)C3CC3)nc3[nH]c(C)nc23)ccc(-c2cc(C)n(C)n2)c1F [I-577, N-(7-((4-(1,5-dimethyl-1H-pyrazol-3-yl)-3-fluoro-2-methoxyphenyl)amino)-2-methyl-3H-imidazo[4,5-b]pyridin-5-yl)cyclopropanecarboxamide]",> 10
3,"Cc1csc(-c2ccc(Nc3cc(Nc4cccc(C#N)n4)nc4[nH]c(C)nc34)c(S(C)(=O)=O)c2)n1 [I-504, 6-((2-methyl-7-((2-(methylsulfonyl)-4-(4-methylthiazol-2-yl)phenyl)amino)-3H-imidazo[4,5-b]pyridin-5-yl)amino)picolinonitrile]",0.1 to 0.5

# From patent US10647713B2 (Nimbus Lakshmi, Inc., priority 2016, dated 2020)
